Laboratory results taken from patent publication US20230337677A1, “ARYL AND PYRIDYL AMIDE PESTICIDES AND COMPOSITIONS THEREOF” (University of Florida Research Foundation, Incorporated, priority 2019, published 2023).

Tests used:
Type in all cases: in vivo
[1] = system: Aedes aegypti strain Orlando (sensitive); experiment: Topical toxicity (24 hour mortality), Ae. aegypti Orlando
Experimental: (§1) The Aedes aegypti strains Orlando (sensitive) as well as the Puerto Rico (PR, resistant to permethrin) were used. The Anopheles gambiae (G3 sensitive strain, as well as Akron kdr (Akdr) strain, resistant to pyrethroids were also assessed. The larvae were provided by the USDA, Gainesville Fl, and raised in a pan with tap water maintained at 28° C. Larvae were fed a ground liver and yeast mixture, and pupae were placed in emergence cages. Adults were held at 28° C. and provided with cotton balls soaked in 10% sugar water for rearing and for all bioassays.
(§2) Female adults from 3 to 6 days were used for the experiments. The drug was dissolved in ethanol and then applied with a micro-applicator on the thorax, between the legs: 200 nL of drug per female mosquito, with different concentrations of the drug; 10 mosquitos were treated together per concentration per replicate, and put together in a small container with free access to sweet water. Mortality, i.e. no visible movement, was assessed 24 hours after treatment. Every compound was assessed on at least 3 different cohorts of mosquitoes, and the LD50 values and slopes were determined with Probit analysis, corrected with Abbott's formula.

[2] = system: Anopheles gambiae Akron kdr (Akdr) strain, resistant to pyrethroids; experiment: Topical toxicity (24 hour mortality), An. gambiae Akdr; settings: for An. gambiae RR (resistance ratio): 24 h LD50 resistant strain (AKDR)/24 h LD50 susceptible strain (G3)
Experimental: as §1, §2

[3] = system: Anopheles gambiae G3 sensitive strain; experiment: Topical toxicity (24 hour mortality), An. gambiae G3
Experimental: as §1, §2

[4] = system: Aedes aegypti mosquitoes, insecticide-susceptible Orlando strain; settings: for 1 h % Repellency, 100 μg/cm^2: screened at 100 μg/cm^2, strain not given
Experimental: The tubes as shown were held horizontally on the bench.
For assessing behavioral repellency (FIG. 1), Aedes aegypti mosquitoes were used from the insecticide-susceptible Orlando strain and the pyrethroid-resistant Puerto Rico strain. Sixteen female mosquitoes were transferred to a glass tube (12.5 cm long, 2.5 cm outer diameter) with the ends covered with netting. Each compound was dissolved in 1 mL of acetone and serial dilutions ranging from 30-0.01 μg/ml were made. Circular filter papers (5 cm^2) were saturated with 50 μL of each concentration and allowed 10 min for solvent evaporation. The filter papers were then placed in clear conical polypropylene caps and fixed to the end of the glass tubes. The netting prevented mosquito contact with the filter paper. The tubes were then aligned with a mark denoting the midline and the proportion of mosquitoes on the chemically treated side was scored for up to 60 min. At the end of the test, the tube was placed in a cage and the ability of the mosquitoes to fly out of the tube was assessed for 30 min. […] This post-test evaluated whether any non-responding mosquitoes (not repelled) resulted from intoxication or disorientation from the test chemical. For assessment of lethality, insects were held for 24 hr under constant exposure in glass tubes having treated filter papers.
Compounds were first screened at 100 μg/cm^2 for repellency and 24 h mortality.

[5] = topical application, 24 h mortality, female adults, susceptible Orlando strain
[6] = topical application, 24 h mortality, female adults, pyrethroid-resistant Akdr strain
[7] = topical application, 24 h mortality, female adults, susceptible strain G3

SMILES	Ae. aegypti OR LD50 [1, 5]	An. gambiae AKDR LD50 [2, 6]	An. gambiae G3 LD50 [3, 7]	also measured
O=C(Nc1cc(Cl)cc(Cl)n1)C(F)(F)C(F)(F)C(F)(F)F [GMR078]	5668 ng/mg	>100 ng/mg		
O=C(Nc1cc(F)nc(F)c1)C(F)(F)C(F)(F)C(F)(F)F [GMR046]	300 ng/mg	>100 ng/mg	>100 ng/mg	
Cc1cc(NC(=O)C(F)F)cc(C)n1 [GMR047]	>3000 ng/mg	>100 ng/mg	>100 ng/mg	
O=C(Nc1cc(Br)nc(Br)c1)C(F)(F)C(F)(F)F [GMR041]	50 ng/mg	~100 ng/mg	~100 ng/mg	
O=C(CCCC(F)(F)F)Nc1cc(Cl)nc(Cl)c1 [GMR052]	2743 ng/mg	>100 ng/mg	>100 ng/mg	
N#CC(F)(F)C(=O)Nc1cc(Cl)nc(Cl)c1 [GMR101]	1841 ng/mg	>100 ng/mg	>100 ng/mg	
CCCC(=O)Nc1cccc(OC(F)(F)F)c1 [GMR162]		>1000 ng/mg	>1000 ng/mg	1 h % Repellency, 100 μg/cm^2 [4]: 50%
Cc1cc(NC(=O)C(F)(F)C(F)(F)F)cc(C)n1 [GMR049]	>3000 ng/mg	>100 ng/mg	>100 ng/mg	
O=C(Nc1cc(F)nc(F)c1)C(F)(F)F [GMR044]	1996 ng/mg	>100 ng/mg	>100 ng/mg	
O=C(Nc1cc(F)nc(F)c1)C(F)F [GMR043]	2480 ng/mg	>100 ng/mg	>100 ng/mg	
O=C(Nc1cc(Br)nc(Br)c1)C(F)F [GMR039]	2253 ng/mg	23.8 ng/mg	20.8 ng/mg	An. gambiae RR (resistance ratio) [2]: 1.1
O=C(Nc1cc(Cl)nc(Cl)c1)C(Cl)(Cl)Cl [GMR059]	866 ng/mg			
CCCC(=O)N(C(=O)CCC)c1cccc(OC(F)(F)F)c1 [GMR163]		>1000 ng/mg	>1000 ng/mg	1 h % Repellency, 100 μg/cm^2 [4]: 50%
O=C(Nc1cc(F)nc(F)c1)C(F)(F)C(F)(F)C(F)(F)C(F)(F)C(F)(F)F [GMR072]	114 ng/mg	17 ng/mg	11.00 ng/mg	An. gambiae RR (resistance ratio) [2]: 1.5
O=C(Nc1cc(Cl)nc(C(F)(F)F)c1)C(F)F [GMR034]	1454 ng/mg	23.8 ng/mg	20.8 ng/mg	An. gambiae RR (resistance ratio) [2]: 1.1
Cc1cc(NC(=O)C(F)(F)C(F)(F)C(F)(F)F)cc(C)n1 [GMR050]	>3000 ng/mg	>100 ng/mg	>100 ng/mg	
O=C(Nc1cc(Cl)nc(Cl)c1)C(C(F)(F)F)C(F)(F)F [GMR174]	500 ng/mg			
O=C(Nc1cc(Cl)nc(C(F)(F)F)c1)C(F)(F)C(F)(F)C(F)(F)F [GMR037, N-(2-chloro-6-(trifluoromethyl)pyridin-4-yl)-2,2,3,3,4,4,4-heptafluorobutanamide]	17 ng/mg	5.3 ng/mg	6.5 ng/mg	An. gambiae RR (resistance ratio) [2]: 0.8
O=C(Nc1cc(Cl)nc(C(F)(F)F)c1)C(F)(F)C(F)(F)C(F)(F)F [compound 56]				Ae. aegypti OR LD50 ([1]; Table 5, topical, 24 h): 17.30 ng/mg; An. gambiae G3 LD50 ([3]; Table 5, topical, 24 h): 6.50 ng/mg; An. gambiae AKDR LD50 ([2]; Table 5, topical, 24 h): 5.30 ng/mg
O=C(Nc1ccccc1OC(F)(F)F)C(F)(F)C(F)(F)C(F)(F)F [GMR129]	>6000 ng/mg	~1000 ng/mg	>1000 ng/mg	1 h % Repellency, 100 μg/cm^2 [4]: 34%
Cc1cc(NC(=O)C(F)(F)F)cc(C)n1 [GMR048]	>1500 ng/mg	>100 ng/mg	>100 ng/mg	
CC(=O)N(C(C)=O)c1ccccc1OC(F)(F)F [GMR169]		>1000 ng/mg	>1000 ng/mg	1 h % Repellency, 100 μg/cm^2 [4]: 82%

SMILES	Ae. aegypti OR LD50 [1, 5]	An. gambiae AKDR LD50 [2, 6]	An. gambiae G3 LD50 [3, 7]	also measured
O=C(Nc1cc(Cl)nc(C(F)(F)F)c1)C(F)(F)F [GMR035]	106 ng/mg	52.1 ng/mg	30.5 ng/mg	An. gambiae RR (resistance ratio) [2]: 1.7
O=C(CSC(F)(F)F)Nc1cc(F)c(F)c(F)c1 [GMR177]	220 ng/mg			1 h % Repellency, 100 μg/cm^2 [4]: 30%; vapor repellency / mortality, statement in words (Example 8) ([4]; structure-activity analysis of Table 2): poor activity
O=C(Nc1cc(Cl)nc(C(F)(F)F)c1)C(F)(F)C(F)(F)F [GMR036]	25 ng/mg	10.0 ng/mg	13.5 ng/mg	An. gambiae RR (resistance ratio) [2]: 0.7
O=C(Nc1ccnc(Cl)c1)C(F)(F)C(F)(F)C(F)(F)C(F)(F)C(F)(F)F [GMR068]	3425 ng/mg	3425 ng/mg		
CCCCCC(=O)Nc1c(F)c(F)nc(F)c1F [GMR065]	1225 ng/mg	1225 ng/mg		
CC(C)CC(=O)Nc1cc(Cl)nc(Cl)c1 [GMR145]	775 ng/mg			
O=C(Nc1c(Cl)c(Cl)nc(Cl)c1Cl)C(F)(F)C(F)(F)C(F)(F)F [GMR074]	29 ng/mg	8.6 ng/mg	11.00 ng/mg	An. gambiae RR (resistance ratio) [2]: 0.8
CC(C)(C)OC(=O)N(C(=O)C(F)(F)F)c1cc(Cl)nc(Cl)c1 [GMR119]	343 ng/mg			
O=C(Nc1cc(Br)nc(Br)c1)C(F)(F)F [GMR040]	1223 ng/mg	>100 ng/mg	>100 ng/mg	
O=C(Nc1ccnc(C(F)(F)F)c1)C(F)(F)C(F)(F)C(F)(F)C(F)(F)C(F)(F)F [GMR070]	1261 ng/mg	1261 ng/mg		
O=C(Nc1cc(F)nc(F)c1)C(F)(F)C(F)(F)F [GMR045]	302 ng/mg	>100 ng/mg	>100 ng/mg	
O=C(Nc1cc(Cl)nc(Cl)c1)C(F)(F)C(F)(F)OC(F)(F)F [GMR084]	17.8 ng/mg	11.00 ng/mg	6.04 ng/mg	An. gambiae RR (resistance ratio) [2]: 1.8
O=C(Nc1ncc(C(F)(F)F)cc1Cl)C(F)(F)C(F)(F)C(F)(F)F [GMR080]	>1000 ng/mg	>100 ng/mg		
O=C(Nc1cc(Cl)nc(Cl)c1)C(F)(F)C(F)(F)C(F)(F)C(F)(F)C(F)(F)F [GMR051]	23.4 ng/mg	3.7 ng/mg	5.2 ng/mg	An. gambiae RR (resistance ratio) [2]: 0.7
CC(C)(C)OC(=O)N(C(=O)C(F)(F)C(F)(F)C(F)(F)F)c1cc(Cl)nc(Cl)c1 [GMR087]	54.6 ng/mg	20.50 ng/mg	23.00 ng/mg	An. gambiae RR (resistance ratio) [2]: 0.9
O=C1C2=C(CCCC2)C(=O)N1COC(=O)C(F)(F)C(F)(F)C(F)(F)F [GMR096]	2538 ng/mg		>100 ng/mg	
O=C(Nc1cc(Br)nc(Br)c1)C(F)(F)C(F)(F)C(F)(F)F [GMR042]	24 ng/mg	4.7 ng/mg	11.4 ng/mg	An. gambiae RR (resistance ratio) [2]: 0.4
Cc1cc(NC(=O)C(F)(F)C(F)(F)C(F)(F)C(F)(F)C(F)(F)F)cc(C)n1 [GMR073]	>3000 ng/mg			
O=C(Nc1ccccn1)C(F)(F)C(F)(F)C(F)(F)F [GMR060]	1758 ng/mg			
O=C(Nc1ccc(Cl)cn1)C(F)(F)C(F)(F)C(F)(F)F [GMR079]	>1000 ng/mg	>100 ng/mg		
COc1cc(NC(=O)C(F)(F)C(F)(F)C(F)(F)C(F)(F)C(F)(F)F)ccn1 [GMR071]	>2000 ng/mg			
O=C(Nc1c(F)c(F)nc(F)c1F)C(F)(F)F [GMR081]	698 ng/mg	>100 ng/mg		
